Experimental data as given in patent US20140113898A1, “BISARYLSULFONE AND DIALKYLARYLSULFONE COMPOUNDS AS CALCIUM CHANNEL BLOCKERS” (Zalicus Pharmaceuticals Ltd., priority 2010, published 2014).
Like-named read-outs stand apart in the source and are kept apart here.

Legend:
Type in all cases: cell-based
[1] = target: T1, CaV2.2 (Homo sapiens, UniProt Q00975); experiment: High-throughput CaV2.2/Kir2.3 FLIPR fluorescent assay; settings: Fluo-4 FLIPR, closed or inactivated state not stated, read-out: FLIPR data CaV2.2
T1 construct: expressed in transfected cells; host or cells: unnamed doxycycline-inducible cell line
How it was run: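 Doxycycline-induced cells moved to 29 °C on assay day and were loaded with 4.4 μM Fluo-4. They were held in 2 mM KCl (closed state) or 12.5 mM KCl (inactivated state) buffer, pH 7.4, then depolarized with 130 mM KCl. Fluorescence was read 3 min on FLIPR, and IC50 was obtained from logistic fits.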

[2] = target: T2, CaV3.1 (Homo sapiens, UniProt O43497); experiment: High-throughput CaV3.1 T-type FLIPR fluorescent assay; settings: Fluo-4 FLIPR
T2 construct: expressed in transfected cells; host or cells: unnamed doxycycline-inducible cell line
Protocol: (§1) Cells were plated in 384-well, clear-bottom, black-walled, poly-D-lysine coated plates (Becton Dickinson, Franklin Lake, N.J.) 2 days prior to use in the FLIPR assay. 100 μL of cells (2.0×10^6 cell/mL) containing doxycyline (Sigma-Aldrich, 1.5 μg/mL; to induce channel expression) were added to each well using a Multidrop (Thermo Scientific, Waltham, Mass.) and were maintained in 5% CO2 incubator at 37° C. On the morning of the assay, cells were transferred to a 5% CO2 incubator at 29° C.
Cells were washed with a wash buffer containing (in mM): 118 NaCl, 18.4 HEPES, 11.7 D-glucose, 0.05 CaCl2, 0.5 MgSO4, 1 KCl, and 1.2 KH2PO4, with the pH adjusted to 7.2 with NaOH. 4.4 μM of the fluorescent indicator dye, Fluo-4 (Invitrogen), prepared in pluronic acid
(Sigma-Aldrich), was loaded into the wells and incubated for 45 minutes at 29° C. in 5% CO2. Cells were then rinsed with the following low Ca^2+ buffer (in mM): 0.34 Na2HPO4, 4.2 NaHCO3, 0.44 KH2PO4, 0.41 MgSO4, 0.49 MgCl2-6H2O, 20 HEPES, 5.5 D-Glucose, 137 NaCl, 5.3 KCl, and 0.001 CaCl2, with 0.1% BSA and the pH adjusted to 7.2 with NaOH. Concentration-dependent response curves were generated from 5 mM stock solutions prepared in DMSO (Sigma-Aldrich) and diluted in the buffer containing low Ca^2+ and incubated for 20 minutes at 29° C. in 5% CO2. Calcium entry was evoked with an addition of (in mM): 0.34 Na2HPO4, 4.2 NaHCO3, 0.44 KH2PO4, 0.41 MgSO4, 0.49 MgCl2-6H2O, 20 HEPES, 5.5 D-Glucose, 137 NaCl, 5.3 KCl, and 6 CaCl2, with 0.1% BSA and the pH adjusted to 7.2 with NaOH. A change in the Fluo-4 fluorescence signal was assessed using FLIPR^TETRA™ instrument (Molecular Devices, Sunnyvale, Calif.) for 3 minutes following the elevation of extracellular KCl using an illumination wavelength of 470-495 nm with emissions recorded at 515-575 nm.
(§2) Concentration-dependent response curves were obtained by comparing the fluorescence signal in the presence of compound and fitted with a logistic function (1) to obtain the concentration that inhibited 50% (IC50) of the RLU signal using OriginPro v.7.5 software (OriginLab, Northampton, Mass.).
(§3) To assess the quality of the FLIPR assays the Z-factor (2) was used to quantify the suitability of the assay conditions using the following equation: […]
(§4) Data are expressed as mean and standard deviation (SD).

[3] = target: T3, CaV3.2 (Homo sapiens, UniProt O95180); experiment: High-throughput CaV3.2/Kir2.3 T-type FLIPR fluorescent assay; settings: Fluo-4 FLIPR, closed or inactivated state not stated
T3 construct: expressed in transfected cells; host or cells: unnamed doxycycline-inducible cell line
Protocol: as §1, with “µL” for “μL”, “(1.2×10^6” for “(2.0×10^6”
Cells were washed with a wash buffer containing (in mM): 118 NaCl, 18.4 HEPES, 11.7 D-glucose, 2 CaCl2, 0.5 MgSO4, 4.7 KCl, and 1.2 KH2PO4, with the pH adjusted to 7.2 with
NaOH. 4.4 μM of the fluorescent indicator dye Fluo-4 (Invitrogen) prepared in pluronic acid (Sigma-Aldrich) was loaded into the wells and incubated for 45 minutes at 29° C. in 5% CO2. Cells were then rinsed with either a 2 mM KCl closed-state buffer (in mM: 138.5 NaCl, 10 HEPES, 10 D-glucose, 1 CaCl2, and 2 KCl, with the pH adjusted to 7.4 with NaOH) when performing the closed-state assay or 7.6 mM KCl inactivated-state buffer (in mM: 130.9 NaCl, 10 HEPES, 10 D-glucose, 1 CaCl2, and 7.6 mM KCl, with the pH adjusted to 7.4 with NaOH) when performing the inactivated-state assay. Concentration-dependent response curves were generated from 5 mM stock solutions prepared in DMSO (Sigma-Aldrich), diluted in either the 2 mM KCl buffer or 7.6 mM KCl buffer, and incubated for 20 minutes at 29° C. in 5% CO2. Calcium entry was evoked with an addition of either 12 mM KCl stimulation buffer (in mM: 128.5 NaCl, 10 HEPES, 10 D-glucose, 1 CaCl2, and 12 KCl, with the pH adjusted to 7.4 with NaOH) or 14.5 mM KCl stimulation buffer (in mM: 126 NaCl, 10 HEPES, 10 D-glucose, 1 CaCl2, and 14.5 KCl, with the pH adjusted to 7.4 with NaOH) for the closed-state or inactivated-state assay respectively. A change in the Fluo-4 fluorescence signal was assessed using FLIPR^TETRA™ instrument (Molecular Devices, Sunnyvale, Calif.) for 3 minutes following the elevation of extracellular KCl using an illumination wavelength of 470-495 nm with emissions recorded at 515-575 nm.
as §2, §3, §4

T2 sequence (O43497 whole entry): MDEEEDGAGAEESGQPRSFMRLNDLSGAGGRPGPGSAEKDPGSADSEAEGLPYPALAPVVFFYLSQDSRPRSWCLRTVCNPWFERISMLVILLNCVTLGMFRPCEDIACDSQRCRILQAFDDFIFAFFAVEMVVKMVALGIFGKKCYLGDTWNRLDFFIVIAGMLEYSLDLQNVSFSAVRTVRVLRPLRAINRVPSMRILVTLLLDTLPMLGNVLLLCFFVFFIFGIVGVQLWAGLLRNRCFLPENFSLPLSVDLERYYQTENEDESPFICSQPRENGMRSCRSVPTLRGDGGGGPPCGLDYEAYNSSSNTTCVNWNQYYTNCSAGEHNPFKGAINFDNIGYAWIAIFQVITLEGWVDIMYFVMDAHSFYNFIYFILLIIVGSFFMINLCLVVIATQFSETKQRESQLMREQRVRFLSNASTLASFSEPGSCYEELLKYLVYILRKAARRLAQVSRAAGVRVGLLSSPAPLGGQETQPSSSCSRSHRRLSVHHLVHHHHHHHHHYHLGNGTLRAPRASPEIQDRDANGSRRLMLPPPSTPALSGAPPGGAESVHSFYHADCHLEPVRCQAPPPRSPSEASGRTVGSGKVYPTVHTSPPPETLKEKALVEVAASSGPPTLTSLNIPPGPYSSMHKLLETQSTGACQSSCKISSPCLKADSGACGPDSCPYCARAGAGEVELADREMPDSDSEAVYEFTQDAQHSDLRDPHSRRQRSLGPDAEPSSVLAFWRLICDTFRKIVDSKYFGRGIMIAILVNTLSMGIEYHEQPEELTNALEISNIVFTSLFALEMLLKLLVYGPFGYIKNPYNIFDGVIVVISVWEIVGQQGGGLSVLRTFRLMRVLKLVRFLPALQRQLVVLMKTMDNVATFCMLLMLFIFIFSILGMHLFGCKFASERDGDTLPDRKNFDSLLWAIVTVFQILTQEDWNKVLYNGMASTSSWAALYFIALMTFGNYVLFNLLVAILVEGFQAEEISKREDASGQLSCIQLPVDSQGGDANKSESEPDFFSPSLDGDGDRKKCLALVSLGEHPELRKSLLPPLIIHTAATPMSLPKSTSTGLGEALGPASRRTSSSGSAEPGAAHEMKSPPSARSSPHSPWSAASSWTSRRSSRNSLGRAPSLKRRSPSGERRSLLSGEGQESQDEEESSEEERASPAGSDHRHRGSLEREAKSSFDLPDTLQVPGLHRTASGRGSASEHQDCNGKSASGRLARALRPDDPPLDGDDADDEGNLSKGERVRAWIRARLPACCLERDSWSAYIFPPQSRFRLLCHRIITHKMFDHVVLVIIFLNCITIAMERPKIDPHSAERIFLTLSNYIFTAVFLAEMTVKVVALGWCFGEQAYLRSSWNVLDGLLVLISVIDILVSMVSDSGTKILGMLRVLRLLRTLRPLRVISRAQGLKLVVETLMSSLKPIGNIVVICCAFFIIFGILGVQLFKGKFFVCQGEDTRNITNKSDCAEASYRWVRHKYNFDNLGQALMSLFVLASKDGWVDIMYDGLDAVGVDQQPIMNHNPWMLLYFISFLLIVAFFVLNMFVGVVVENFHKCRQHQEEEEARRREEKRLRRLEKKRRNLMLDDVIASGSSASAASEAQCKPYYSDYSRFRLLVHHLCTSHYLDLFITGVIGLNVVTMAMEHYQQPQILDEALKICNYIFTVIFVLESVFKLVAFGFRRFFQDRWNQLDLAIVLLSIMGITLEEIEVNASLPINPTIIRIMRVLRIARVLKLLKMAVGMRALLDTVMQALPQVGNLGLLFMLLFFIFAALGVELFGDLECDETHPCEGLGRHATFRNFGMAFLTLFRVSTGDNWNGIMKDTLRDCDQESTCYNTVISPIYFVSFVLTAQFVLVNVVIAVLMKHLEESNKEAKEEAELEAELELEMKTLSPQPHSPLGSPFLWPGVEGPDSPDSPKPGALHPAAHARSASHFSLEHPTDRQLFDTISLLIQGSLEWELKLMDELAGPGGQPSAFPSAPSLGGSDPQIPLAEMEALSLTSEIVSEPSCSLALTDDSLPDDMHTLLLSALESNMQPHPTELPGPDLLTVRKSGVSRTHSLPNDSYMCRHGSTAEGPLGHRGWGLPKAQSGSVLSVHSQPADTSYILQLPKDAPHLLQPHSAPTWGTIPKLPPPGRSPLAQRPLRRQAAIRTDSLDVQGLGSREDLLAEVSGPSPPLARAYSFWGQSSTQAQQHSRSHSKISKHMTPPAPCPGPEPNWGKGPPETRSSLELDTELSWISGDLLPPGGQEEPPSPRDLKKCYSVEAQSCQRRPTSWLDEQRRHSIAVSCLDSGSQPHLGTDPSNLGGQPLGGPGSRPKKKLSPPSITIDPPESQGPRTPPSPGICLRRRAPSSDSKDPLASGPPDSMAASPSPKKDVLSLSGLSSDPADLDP
T3 sequence (O95180 whole entry): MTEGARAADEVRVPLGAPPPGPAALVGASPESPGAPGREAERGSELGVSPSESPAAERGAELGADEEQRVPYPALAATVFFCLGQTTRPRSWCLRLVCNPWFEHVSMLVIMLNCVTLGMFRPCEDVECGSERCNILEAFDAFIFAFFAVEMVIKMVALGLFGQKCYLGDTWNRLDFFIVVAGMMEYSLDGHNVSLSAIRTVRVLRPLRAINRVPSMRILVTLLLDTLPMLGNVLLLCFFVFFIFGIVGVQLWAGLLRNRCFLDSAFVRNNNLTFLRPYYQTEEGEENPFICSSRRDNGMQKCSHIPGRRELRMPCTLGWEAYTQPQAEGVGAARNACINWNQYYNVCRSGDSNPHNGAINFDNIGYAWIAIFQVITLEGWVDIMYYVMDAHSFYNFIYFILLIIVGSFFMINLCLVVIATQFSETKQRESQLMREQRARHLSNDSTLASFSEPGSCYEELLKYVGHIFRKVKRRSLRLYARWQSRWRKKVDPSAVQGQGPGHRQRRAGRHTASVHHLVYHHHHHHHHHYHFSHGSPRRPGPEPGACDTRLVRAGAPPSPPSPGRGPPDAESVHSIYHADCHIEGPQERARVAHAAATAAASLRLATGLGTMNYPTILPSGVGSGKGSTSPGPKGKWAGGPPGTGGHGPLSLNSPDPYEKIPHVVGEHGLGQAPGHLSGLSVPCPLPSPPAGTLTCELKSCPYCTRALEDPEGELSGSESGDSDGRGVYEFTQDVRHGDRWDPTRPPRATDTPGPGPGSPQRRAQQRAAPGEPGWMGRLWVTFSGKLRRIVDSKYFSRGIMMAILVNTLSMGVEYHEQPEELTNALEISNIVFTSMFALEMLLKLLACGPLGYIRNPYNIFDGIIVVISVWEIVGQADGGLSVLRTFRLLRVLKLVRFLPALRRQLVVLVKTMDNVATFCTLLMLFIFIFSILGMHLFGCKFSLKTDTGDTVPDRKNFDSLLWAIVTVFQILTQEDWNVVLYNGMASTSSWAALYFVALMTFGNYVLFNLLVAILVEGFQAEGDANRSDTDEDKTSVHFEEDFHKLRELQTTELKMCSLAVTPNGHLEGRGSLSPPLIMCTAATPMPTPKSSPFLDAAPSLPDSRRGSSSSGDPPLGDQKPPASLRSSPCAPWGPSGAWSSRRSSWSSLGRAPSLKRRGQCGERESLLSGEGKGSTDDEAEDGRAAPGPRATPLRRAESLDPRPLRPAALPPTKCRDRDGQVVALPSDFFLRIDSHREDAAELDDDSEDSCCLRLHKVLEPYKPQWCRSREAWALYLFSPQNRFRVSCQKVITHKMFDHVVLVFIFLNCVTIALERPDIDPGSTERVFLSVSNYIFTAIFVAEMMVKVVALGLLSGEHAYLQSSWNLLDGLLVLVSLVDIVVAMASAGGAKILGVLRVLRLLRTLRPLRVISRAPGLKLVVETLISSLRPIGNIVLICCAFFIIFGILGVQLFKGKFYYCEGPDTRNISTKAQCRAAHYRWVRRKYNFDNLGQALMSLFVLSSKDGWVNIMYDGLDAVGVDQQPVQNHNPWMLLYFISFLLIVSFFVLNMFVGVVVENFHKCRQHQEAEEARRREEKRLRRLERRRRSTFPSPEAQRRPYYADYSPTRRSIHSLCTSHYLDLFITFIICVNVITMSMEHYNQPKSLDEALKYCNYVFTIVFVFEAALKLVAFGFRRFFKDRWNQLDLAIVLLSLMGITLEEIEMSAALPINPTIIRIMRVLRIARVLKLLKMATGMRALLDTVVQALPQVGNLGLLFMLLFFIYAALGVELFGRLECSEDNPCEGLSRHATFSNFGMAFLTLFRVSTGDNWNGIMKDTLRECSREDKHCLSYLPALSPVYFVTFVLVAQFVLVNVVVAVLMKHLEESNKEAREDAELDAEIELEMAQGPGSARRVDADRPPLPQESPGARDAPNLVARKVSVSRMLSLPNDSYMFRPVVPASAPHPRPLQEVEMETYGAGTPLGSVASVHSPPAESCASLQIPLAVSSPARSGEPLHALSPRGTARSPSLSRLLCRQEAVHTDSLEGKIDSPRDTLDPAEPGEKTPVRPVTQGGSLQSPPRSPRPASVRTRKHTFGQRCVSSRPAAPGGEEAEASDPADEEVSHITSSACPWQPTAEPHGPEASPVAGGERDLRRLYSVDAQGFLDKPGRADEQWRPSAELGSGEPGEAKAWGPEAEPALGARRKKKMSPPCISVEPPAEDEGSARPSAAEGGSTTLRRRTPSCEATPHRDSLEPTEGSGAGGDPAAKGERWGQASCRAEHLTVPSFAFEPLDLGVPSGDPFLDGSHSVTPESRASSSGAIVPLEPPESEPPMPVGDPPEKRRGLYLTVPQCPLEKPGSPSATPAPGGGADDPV

Row | SMILES | IC50 ([1]; Table 4) [nM] | IC50 ([2]; Table 4) [nM] | IC50 ([3]; Table 4) [nM] | IC50 ([1]; Table 5) [nM] | IC50 ([2]; Table 5) [nM] | IC50 ([3]; Table 5) [nM]
1 | O=C1c2ccc(C(F)(F)F)nc2CN1Cc1cccc(S(=O)(=O)c2cccc(C(F)(F)F)c2)c1 [Compound 57, 2-(trifluoromethyl)-6-(3-((3-(trifluoromethyl)phenyl)sulfonyl)benzyl)-6,7-dihydro-5H-pyrrolo[3,4-b]pyridin-5-one] | 260 | 6130 | 800 | – | – | –
2 | O=C(NCc1ccccc1S(=O)(=O)c1cccc(C(F)(F)F)c1)c1ccc(F)c(Cl)c1 [Compound 52, 3-chloro-4-fluoro-N-(2-((3-(trifluoromethyl)phenyl)sulfonyl)benzyl)benzamide] | 740 | 680 | 1300 | – | – | –
3 | Cn1nc(C(F)(F)F)cc1C(=O)NCc1cccc(S(=O)(=O)c2cccc(C(F)(F)F)c2)c1 [Compound 22, 1-methyl-3-(trifluoromethyl)-N-(3-((3-(trifluoromethyl)phenyl)sulfonyl)benzyl)-1H-pyrazole-5-carboxamide] | 220 | 3010 | 640 | – | – | –
4 | CC(C)(C(=O)NCc1cccc(S(=O)(=O)c2cccc(C(F)(F)F)c2)c1)S(=O)(=O)c1cccc(C(F)(F)F)c1 [Compound 226, 2-methyl-2-((3-(trifluoromethyl)phenyl)sulfonyl)-N-(3-((3-(trifluoromethyl)phenyl)sulfonyl)benzyl)propanamide] | – | – | – | 110 | 1410 | 1200
5 | CS(=O)(=O)c1nc(C(F)(F)F)ccc1C(=O)NCc1cccc(S(=O)(=O)c2cccc(C(F)(F)F)c2)c1 [Compound 21, 2-(methylsulfonyl)-6-(trifluoromethyl)-N-(3-((3-(trifluoromethyl)phenyl)sulfonyl)benzyl)nicotinamide] | 760 | 9070 | 2680 | – | – | –
6 | CS(=O)(=O)c1cc(C(=O)NCc2ccc(S(=O)(=O)c3cccc(C(F)(F)F)c3)cc2)cc(C(F)(F)F)n1 [Compound 10, 2-(methylsulfonyl)-6-(trifluoromethyl)-N-(4-((3-(trifluoromethyl)phenyl)sulfonyl)benzyl)isonicotinamide] | 690 | 1970 | 980 | – | – | –
7 | CS(=O)(=O)c1cc(C(=O)NCc2cccc(S(=O)(=O)c3cccc(C(F)(F)F)c3)c2)cc(C(F)(F)F)n1 [Compound 23, 2-(methylsulfonyl)-6-(trifluoromethyl)-N-(3-((3-(trifluoromethyl)phenyl)sulfonyl)benzyl)isonicotinamide] | 490 | 2050 | 570 | – | – | –
8 | O=C(NCc1ccc(S(=O)(=O)c2cccc(C(F)(F)F)c2)cc1)c1ccnc(C(F)(F)F)n1 [Compound 9, 2-(trifluoromethyl)-N-(4-((3-(trifluoromethyl)phenyl)sulfonyl)benzyl)pyrimidine-4-carboxamide] | 490 | 2850 | 1690 | – | – | –
9 | CC(C)(CNC(=O)C(C)(C)S(=O)(=O)c1cccc(C(F)(F)F)c1)S(=O)(=O)c1cccc(C(F)(F)F)c1 [Compound 149, 2-methyl-N-(2-methyl-2-((3-(trifluoromethyl)phenyl)sulfonyl)propyl)-2-((3-(trifluoromethyl)phenyl)sulfonyl)propanamide] | – | – | – | 460 | 3850 | 2860
10 | N[C@@H](C(=O)NCc1ccc(S(=O)(=O)c2cccc(C(F)(F)F)c2)cc1)c1ccccc1 [Compound 63, (R)-2-amino-2-phenyl-N-(4-((3-(trifluoromethyl)phenyl)sulfonyl)benzyl)acetamide] | 440 | 580 | – | – | – | –
11 | CC(C)(C(=O)Nc1ccc(Oc2ccc(C(F)(F)F)cn2)nc1)S(=O)(=O)c1cccc(C(F)(F)F)c1 [Compound 120, 2-methyl-2-((3-(trifluoromethyl)phenyl)sulfonyl)-N-(6-((5-(trifluoromethyl)pyridin-2-yl)oxy)pyridin-3-yl)propanamide] | – | – | – | 1020 | 5690 | –
